In PubChem BioAssay (NCI) one finds TGI and GI50 data, which are given here for 17 compounds.

Test systems include M14 melanoma; MALME-3M melanoma; MDA-MB-435; NCI-H23 lung; NCI-H522 lung; PC-3 prostate; SN12C renal; T-47D breast; U251 CNS; SR leukemia.
Holding throughout (test): NCI tumour cell line growth inhibition, 48 h

Structures are written as SMILES.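 All cell lines were grown in 96-well plates and treated with compound for 48 hours. GI50 = concentration required for 50% inhibition of growth. Definition used: TGI = concentration required for complete inhibition of growth.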

Consider `CCSc1n/c(=C\c2ccco2)c2nnnn12`, for which the TGI with M14 melanoma, in the assay with MALME-3M melanoma, with MDA-MB-435, with NCI-H23 lung, with NCI-H522 lung and in the assay on PC-3 prostate was greater than 100 µM throughout. In addition, the TGI with SN12C renal, in the assay on T-47D breast and in the assay with U251 CNS was greater than 100 µM each time.

`COc1cc(C[S+]2CCCC2)c(SC)cc1C[S+]1CCCC1`: the TGI in the assay with M14 melanoma, with MALME-3M melanoma, in the assay on NCI-H23 lung, in the assay on NCI-H522 lung, in the assay with SN12C renal and with U251 CNS was greater than 100 µM throughout.

For the compound `CC(=O)OC1CCC2(C)C3CCC4(C)C(c5ccc(=O)oc5)CC5OC54C3CCC2(O)C1` (stereo not drawn), the TGI with MALME-3M melanoma was found to be 3.21 µM; in the assay on NCI-H23 lung it was 2.98 µM; in the assay with NCI-H522 lung, 2.04 µM; in the assay on SN12C renal, 34.2 µM; in the assay on U251 CNS it was 9.14 µM.

In the case of `O=C(CC(=O)Nc1cccc(C(=O)O)c1)Nc1cccc(C(=O)O)c1`, the TGI with M14 melanoma, in the assay on MDA-MB-435, with NCI-H23 lung, in the assay on NCI-H522 lung, in the assay with PC-3 prostate and in the assay on SN12C renal was greater than 100 µM each time. Moreover, the TGI in the assay on T-47D breast and in the assay with U251 CNS was greater than 100 µM in each case.

For `c1ccc2sc(C3(N4CCCC4)CCCCCC3)cc2c1`, the TGI in the assay with M14 melanoma came out at 31 µM; in the assay with MDA-MB-435, 31.7 µM; in the assay with NCI-H23 lung, 40.6 µM; in the assay on NCI-H522 lung, 33.3 µM; in the assay with SN12C renal, 29.2 µM; in the assay on SR leukemia, 44.1 µM. In the assay with U251 CNS, the TGI was 30.9 µM.

`O=C(OC(=O)n1ccc2ccccc21)n1ccc2ccccc21`: the TGI with NCI-H23 lung, in the assay on SN12C renal and with U251 CNS was greater than 100 µM each time.

Consider `CC1CC(N)=Nc2ccccc2N1` (stereo not drawn), for which the TGI in the assay with M14 melanoma, in the assay with MALME-3M melanoma, in the assay with MDA-MB-435, in the assay on NCI-H23 lung, with NCI-H522 lung and in the assay with PC-3 prostate was greater than 100 µM each time. Further, the TGI with SN12C renal and with U251 CNS was greater than 100 µM throughout.

For the compound `O=NN(CCCl)C(=O)NC1CCSc2ccccc21` (stereo not drawn), the TGI in the assay on MALME-3M melanoma, with NCI-H23 lung, in the assay with NCI-H522 lung, in the assay with SN12C renal and in the assay on U251 CNS was greater than 100 µM in each case.

With `S=C(NCc1ccccc1)c1nc[nH]c1C(=S)NCc1ccccc1`, the TGI came to 20.7 µM in the assay with M14 melanoma; 24.6 µM with MALME-3M melanoma; 19.6 µM in the assay on MDA-MB-435; 25.7 µM in the assay on NCI-H23 lung; 21.3 µM in the assay on NCI-H522 lung; 20.4 µM in the assay with PC-3 prostate. For the same compound, the results for the TGI with SN12C renal, with T-47D breast and with U251 CNS were 25 µM, 17.4 µM and 18.4 µM, respectively.

As for `NC(N)=NCCN=C(N)N`, the TGI in the assay on M14 melanoma, in the assay on MALME-3M melanoma, in the assay with MDA-MB-435, in the assay with NCI-H23 lung, with NCI-H522 lung and with PC-3 prostate was greater than 100 µM each time. In addition, the TGI in the assay on SN12C renal, in the assay with T-47D breast and in the assay on U251 CNS was greater than 100 µM throughout.

In the case of `CN(c1ccc(Cl)cc1)S(=O)(=O)c1cccc([N+](=O)[O-])c1`, the TGI with M14 melanoma, with MALME-3M melanoma, in the assay on MDA-MB-435, in the assay with NCI-H23 lung, with NCI-H522 lung and in the assay on PC-3 prostate was greater than 100 µM each time. The TGI in the assay with SN12C renal, in the assay with SR leukemia and in the assay on U251 CNS was greater than 100 µM in each case.

Take `Cc1ccc(S(=O)(=O)Oc2cc(-c3ccccc3)nc3ccccc23)cc1`: the TGI with MALME-3M melanoma was 17.9 µM; with NCI-H23 lung it was 12.2 µM; with NCI-H522 lung, 3.7 µM; in the assay with SN12C renal, greater than 41.5 µM; with U251 CNS, 9.85 µM.

With `NC(=O)C(N)Cc1ccc(O)cn1` (stereo not drawn), the TGI in the assay on MALME-3M melanoma, with MDA-MB-435, in the assay with NCI-H23 lung, in the assay on NCI-H522 lung, in the assay with PC-3 prostate and with SN12C renal was greater than 100 µM in each case. Moreover, the TGI with SR leukemia and in the assay with U251 CNS was greater than 100 µM in each case.

Take `CN(c1ccc(Cl)cc1)S(=O)(=O)c1ccc([N+](=O)[O-])cc1`: the TGI in the assay with M14 melanoma, with MALME-3M melanoma, with MDA-MB-435, in the assay with NCI-H23 lung, in the assay on NCI-H522 lung and with PC-3 prostate was greater than 100 µM in each case. The TGI with SN12C renal, with T-47D breast and in the assay on U251 CNS was greater than 100 µM each time.

`CC(=O)Nc1cc(C(=O)Nc2cc(C(=O)N3CC(CCl)c4c3cc(N)c3ccccc43)nn2C)nn1C` (stereo not drawn): the TGI amounted to 2.07 µM with M14 melanoma; 0.267 µM in the assay with MALME-3M melanoma; 0.281 µM in the assay with MDA-MB-435; 0.0678 µM in the assay with NCI-H23 lung; 0.0181 µM in the assay on NCI-H522 lung; 0.0102 µM in the assay on SN12C renal. Also, the TGI worked out at 0.0931 µM in the assay on T-47D breast and 0.856 µM in the assay on U251 CNS.

On to `Cc1ccc2c(n1)C(=O)c1[nH]c3ccccc3c1C2=O`, for which the GI50 is 0.208 µM with MALME-3M melanoma; 1.59 µM in the assay on MDA-MB-435; 0.687 µM in the assay on NCI-H23 lung; 2.48 µM with NCI-H522 lung; 1.63 µM in the assay with PC-3 prostate; 2 µM with SN12C renal. Also, the GI50 in the assay with T-47D breast is 0.537 µM; in the assay on U251 CNS, 2.93 µM. Besides, the TGI in the assay with MALME-3M melanoma was 1.07 µM; in the assay on MDA-MB-435, 2.94 µM; with NCI-H23 lung, 3.79 µM; in the assay with NCI-H522 lung it was 9.05 µM; in the assay on PC-3 prostate it was greater than 100 µM; with SN12C renal, 6.06 µM. The TGI in the assay on T-47D breast is 17.9 µM; in the assay on U251 CNS it was greater than 100 µM.

As to `COc1ccc(/C=C(/C(=O)c2ccc(Cl)cc2)N2C=CC=CC2=C(C#N)C#N)cc1OC`, the TGI with M14 melanoma was found to be 11.4 µM; in the assay with MALME-3M melanoma it was 2.91 µM; in the assay with MDA-MB-435, 19.1 µM; with NCI-H23 lung it was 27.5 µM; in the assay with NCI-H522 lung, 0.953 µM; with PC-3 prostate, 12.9 µM. In addition, the TGI was 47.7 µM with SN12C renal, 29.4 µM in the assay on T-47D breast and 24.4 µM with U251 CNS.
